Common to all, as to type: biochemical
One assay concerns the target LRRK2 (G2019S) (Homo sapiens, UniProt Q5S007, G2019S). As to the kind of experiment: LRRK2 G2019S enzyme inhibition, ADP-Glo kinase assay. The arrangement: purchased SignalChem L10-12GG. To be noted: ATP 25 μM. In outline:
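Purified human LRRK2 G2019S (16 ng) with 25 μM ATP and 0.2 μg substrate, 2 h at 25° C. in Tris-HCl pH 7.4, MgCl2, BSA, DTT buffer; compounds at 12 final concentrations, 50 μM down to 0.000001024 μM. ADP-Glo luminescence versus solvent control gave IC50.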

The target in a further assay is T1, human GST-CLK1 (Homo sapiens, UniProt P49759).
T1 construct: purified human GST-CLK1 (129-end, SignalChem) enzyme; purchased SignalChem
T1 sequence (P49759 129-484 limits assumed): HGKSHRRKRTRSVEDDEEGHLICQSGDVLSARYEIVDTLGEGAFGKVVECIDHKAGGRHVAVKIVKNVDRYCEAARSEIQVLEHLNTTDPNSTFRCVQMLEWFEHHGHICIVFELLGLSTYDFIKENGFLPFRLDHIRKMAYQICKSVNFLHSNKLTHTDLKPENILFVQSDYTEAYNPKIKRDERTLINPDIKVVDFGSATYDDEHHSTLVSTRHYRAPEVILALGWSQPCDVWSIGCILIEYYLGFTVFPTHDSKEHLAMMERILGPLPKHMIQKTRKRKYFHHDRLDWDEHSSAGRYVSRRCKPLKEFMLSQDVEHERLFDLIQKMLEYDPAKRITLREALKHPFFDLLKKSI
As to the kind of experiment: GST-CLK1 enzyme inhibition, ADP-Glo kinase assay. To be noted: ATP 10 μM, GST-CLK1 129-end. The essentials:
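Human GST-CLK1 (129-end, 3 ng) reacted with substrate and 10 μM ATP for 1 h at 25° C in 40 mM Tris-HCl pH 7.4, 20 mM MgCl2, 0.5 mg/mL BSA, 50 μM DTT. ADP-Glo luminescence was normalised to solvent control; IC50 (nM) from 3 data sets.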

For a further assay, the target named is T2, human GST-DYRK1A (Homo sapiens, UniProt Q13627).
T2 construct: purified human GST-DYRK1A (full length, Thermo Scientifics) enzyme; purchased Thermo Scientifics
As to the kind of experiment: GST-DYRK1A enzyme inhibition, ADP-Glo kinase assay. Conditions: ATP 10 μM, GST-DYRK1A full length, read-out: DYRK1 IC50. In outline: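 Full-length human GST-DYRK1A (10 ng) with 10 μM ATP and specific substrate in 40 mM Tris-HCl pH 7.4, 20 mM MgCl2, 0.5 mg/mL BSA, 50 μM DTT, 1 h at 25 °C. ADP formation read by ADP-Glo luminescence relative to solvent control; IC50 from three data sets.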

Chain of LRRK2 (G2019S) (Q5S007 970-2527 G2019S limits assumed): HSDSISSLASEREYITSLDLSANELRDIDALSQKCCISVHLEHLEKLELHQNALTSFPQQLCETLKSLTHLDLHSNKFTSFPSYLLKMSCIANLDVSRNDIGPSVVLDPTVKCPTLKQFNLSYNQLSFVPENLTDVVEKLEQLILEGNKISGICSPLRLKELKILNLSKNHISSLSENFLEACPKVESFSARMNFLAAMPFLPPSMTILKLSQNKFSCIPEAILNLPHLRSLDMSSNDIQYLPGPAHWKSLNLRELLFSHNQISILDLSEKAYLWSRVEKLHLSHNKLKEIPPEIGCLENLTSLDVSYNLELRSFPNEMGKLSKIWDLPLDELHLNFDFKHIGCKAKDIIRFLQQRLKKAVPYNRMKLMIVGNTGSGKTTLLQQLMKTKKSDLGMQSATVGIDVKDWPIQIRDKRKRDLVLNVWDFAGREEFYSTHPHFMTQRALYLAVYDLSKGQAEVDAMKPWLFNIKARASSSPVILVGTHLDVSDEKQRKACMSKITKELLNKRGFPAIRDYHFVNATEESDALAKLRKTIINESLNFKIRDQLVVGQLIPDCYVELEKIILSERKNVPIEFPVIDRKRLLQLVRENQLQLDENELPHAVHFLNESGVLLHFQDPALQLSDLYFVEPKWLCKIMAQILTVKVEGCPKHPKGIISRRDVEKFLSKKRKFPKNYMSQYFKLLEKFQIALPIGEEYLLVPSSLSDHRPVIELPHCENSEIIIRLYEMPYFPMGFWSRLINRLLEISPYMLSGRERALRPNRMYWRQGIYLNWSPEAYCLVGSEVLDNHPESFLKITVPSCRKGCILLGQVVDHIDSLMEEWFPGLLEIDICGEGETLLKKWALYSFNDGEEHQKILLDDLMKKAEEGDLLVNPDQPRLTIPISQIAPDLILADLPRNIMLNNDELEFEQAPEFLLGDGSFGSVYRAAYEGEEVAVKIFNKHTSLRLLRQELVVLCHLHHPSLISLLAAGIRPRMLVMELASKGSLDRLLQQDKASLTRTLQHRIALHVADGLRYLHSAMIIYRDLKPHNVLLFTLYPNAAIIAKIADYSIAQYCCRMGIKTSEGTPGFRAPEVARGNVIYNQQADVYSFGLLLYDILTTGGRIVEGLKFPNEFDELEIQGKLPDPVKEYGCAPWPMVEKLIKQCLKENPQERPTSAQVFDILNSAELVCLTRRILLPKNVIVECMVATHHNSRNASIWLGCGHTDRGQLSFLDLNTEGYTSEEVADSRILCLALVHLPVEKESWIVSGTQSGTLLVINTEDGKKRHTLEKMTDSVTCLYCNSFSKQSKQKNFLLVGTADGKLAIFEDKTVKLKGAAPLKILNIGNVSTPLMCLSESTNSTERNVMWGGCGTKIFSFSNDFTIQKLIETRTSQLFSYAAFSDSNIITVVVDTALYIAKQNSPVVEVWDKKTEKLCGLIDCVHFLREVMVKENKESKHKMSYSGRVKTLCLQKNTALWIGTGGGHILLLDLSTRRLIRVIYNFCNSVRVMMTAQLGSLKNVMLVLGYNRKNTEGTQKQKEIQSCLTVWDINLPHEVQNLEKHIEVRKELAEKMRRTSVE

In the case of `COc1cc(S(C)(=O)=O)ccc1Nc1nc(NC2CCCC2)c2cc[nH]c2n1` [Example 1, N^4-cyclopentyl-N^2-(2-methoxy-4-(methylsulfonyl)phenyl)-7H-pyrrolo[2,3-d]pyrimidine-2,4-diamine], the 50% inhibitory concentration (IC50) is below 100 nM at LRRK2 (G2019S), 301 to 1000 nM against human GST-CLK1 and 301 to 1000 nM at human GST-DYRK1A.

Consider `COc1cc(S(C)(=O)=O)ccc1Nc1nc(NCC2CCC2)c2cc[nH]c2n1` [Example 39, N^4-(cyclobutylmethyl)-N^2-(2-methoxy-4-(methylsulfonyl)phenyl)-7H-pyrrolo[2,3-d]pyrimidine-2,4-diamine 2,2,2-trifluoroacetate], for which the half-inhibitory concentration (IC50) against LRRK2 (G2019S) is below 100 nM; against human GST-CLK1, 301 to 1000 nM; at human GST-DYRK1A, 301 to 1000 nM.

Turning to `CCNc1nc(Nc2ccc(S(=O)(=O)N3CCC(N4CCOCC4)CC3)cc2OC)nc2[nH]ccc12` [Example 6, N^4-ethyl-N^2-(2-methoxy-4-((4-morpholinopiperidin-1-yl)sulfonyl)phenyl)-7H-pyrrolo[2,3-d]pyrimidine-2,4-diamine 2,2,2-trifluoroacetate], the IC50 on LRRK2 (G2019S) was below 100 nM; against human GST-CLK1 it was 301 to 1000 nM; at human GST-DYRK1A, 301 to 1000 nM.

For the molecule `COc1cc(P(C)(C)=O)ccc1Nc1nc(NCC2CCC2)c2c(C(F)(F)F)c[nH]c2n1` [Example 391, (4-((4-((cyclo-butylmethyl)amino)-5-(trifluoromethyl)-7H-pyrrolo[2,3-d]pyrimidin-2-yl)amino)-3-methoxyphenyl) dimethyl-phosphine oxide], the values for the IC50 on LRRK2 (G2019S), against human GST-CLK1 and at human GST-DYRK1A were below 100 nM, 301 to 1000 nM and 301 to 1000 nM, respectively.

Take `COc1cc(S(C)(=O)=O)ccc1Nc1nc(NC2CCC2)c2cc[nH]c2n1` [Example 24, N^4-cyclobutyl-N^2-(2-methoxy-4-(methylsulfonyl)phenyl)-7H-pyrrolo[2,3-d]pyrimidine-2,4-diamine]: the half-inhibitory concentration (IC50) was below 100 nM against LRRK2 (G2019S), 301 to 1000 nM on human GST-CLK1 and 301 to 1000 nM on human GST-DYRK1A.

On to `CS(=O)(=O)CCNc1nc(Nc2ccc(C(=O)N3CCN(C4COC4)CC3)c3c2OCCO3)nc2[nH]cc(C(F)(F)F)c12` [Example 427, (8-((4-((2-(methylsulfonyl)ethyl)amino)-5-(trifluoromethyl)-7H-pyrrolo[2,3-d]pyrimidin-2-yl)amino)-2,3-dihydrobenzo[b] [1,4]dioxin-5-yl) (4-(oxetan-3-yl)piperazin-1-yl)methanone], for which the IC50 against LRRK2 (G2019S), on human GST-CLK1 and on human GST-DYRK1A was below 100 nM throughout.

`COc1cc(S(C)(=O)=O)ccc1Nc1nc(NCC2CC2)c2c(C#N)c[nH]c2n1` [Example 110, 4-((cyclopropylmethyl)amino)-2-((2-methoxy-4-(methylsulfonyl)phenyl)amino)-7H-pyrrolo[2,3-d]pyrimidine-5-carbonitrile]: the values for the IC50 on LRRK2 (G2019S), against human GST-CLK1 and on human GST-DYRK1A were below 100 nM, 301 to 1000 nM and 301 to 1000 nM, respectively.

With `O=C(c1ccc(Nc2nc(NC3CCC3)c3cc[nH]c3n2)c2c1OCCO2)N1CCOCC1` [Example 47, (8-((4-(cyclobutylamino)-7H-pyrrolo[2,3-d]pyrimidin-2-yl)amino)-2,3-dihydrobenzo[b][1,4]dioxin-5-yl)(morpholino)methanone], the half-maximal inhibitory concentration (IC50) at LRRK2 (G2019S) was below 100 nM; against human GST-CLK1, 301 to 1000 nM; at human GST-DYRK1A, 301 to 1000 nM.

Consider `COc1cc(P2(=O)CCN(C3COC3)CC2)ccc1Nc1nc(NCCS(C)(=O)=O)c2c(C#N)c[nH]c2n1` [Example 314, 2-((2-methoxy-4-(1-(oxetan-3-yl)-4-oxido-1,4-azaphosphinan-4-yl)phenyl)amino)-4-((2-(methyl-sulfonyl)eth-yl)amino)-7H-pyrrolo[2,3-d]pyrimidine-5-carbonitrile], for which the concentration for half-maximal inhibition (IC50) on LRRK2 (G2019S) is below 100 nM; at human GST-CLK1, 301 to 1000 nM; on human GST-DYRK1A, 301 to 1000 nM.

As for `O=C(c1ccc(Nc2nc(NCC3CCC3)c3c(C(F)(F)F)c[nH]c3n2)c2c1CCO2)N1CCOCC1` [Example 458, (7-((4-((cyclo-butylmethyl)amino)-5-(trifluoromethyl)-7H-pyrrolo[2,3-d]pyrimidin-2-yl)amino)-2,3-dihydrobenzo-furan-4-yl) (morpholino) methanone], the IC50 against LRRK2 (G2019S) is below 100 nM; on human GST-CLK1, 301 to 1000 nM; on human GST-DYRK1A, 301 to 1000 nM.

Regarding `COc1cc(P(C)(C)=O)ccc1Nc1nc(NC2CCOCC2)c2c(C(F)(F)F)c[nH]c2n1` [Example 389, (3-methoxy-4-((4-((tetrahydro-2H-pyran-4-yl)amino)-5-(trifluoromethyl)-7H-pyrrolo[2,3-d]pyrimidin-2-yl)amino)phenyl) dimethyl-phosphine oxide], the IC50 on LRRK2 (G2019S) was below 100 nM; against human GST-CLK1, below 100 nM; at human GST-DYRK1A, 301 to 1000 nM.

Turning to `COc1cc(S(=O)(=O)N2CCC(N3CCOCC3)CC2)ccc1Nc1nc(NCC2CCCC2)c2cc[nH]c2n1` [Example 41, N^4-(cyclopentylmethyl)-N^2-(2-methoxy-4-((4-morpholinopiperidin-1-yl)sulfonyl)phenyl)-7H-pyrrolo[2,3-d]pyrimidine-2,4-diamine 2,2,2-trifluoroacetate], the IC50 on LRRK2 (G2019S) was below 100 nM; against human GST-CLK1, 301 to 1000 nM; at human GST-DYRK1A it was 301 to 1000 nM.

In the case of `COc1cc(S(=O)(=O)N2CCOCC2)ccc1Nc1nc(NC2CCCCC2)c2cc[nH]c2n1` [Example 26, N^4-cyclohexyl-N^2-(2-methoxy-4-(morpholinosulfonyl)phenyl)-7H-pyrrolo[2,3-d]pyrimidine-2,4-diamine 2,2,2-trifluoroacetate], the half-maximal inhibitory concentration (IC50) at LRRK2 (G2019S) is below 100 nM; on human GST-CLK1, 301 to 1000 nM; at human GST-DYRK1A, 301 to 1000 nM.

Take `CNc1nc(Nc2ccc(S(C)(=O)=O)cc2OC)nc2[nH]ccc12` [Example 4, N^2-(2-methoxy-4-(methylsulfonyl)phenyl)-N^4-methyl-7H-pyrrolo[2,3-d]pyrimidine-2,4-diamine 2,2,2-trifluoroacetate]: the IC50 is below 100 nM at LRRK2 (G2019S), 301 to 1000 nM on human GST-CLK1 and 301 to 1000 nM on human GST-DYRK1A.

`O=C(c1ccc(Nc2nc(NC3CCCCC3)c3cc[nH]c3n2)c2c1OCCO2)N1CCOCC1` [Example 49, (8-((4-(cyclohexylamino)-7H-pyrrolo[2,3-d]pyrimidin-2-yl)amino)-2,3-dihydrobenzo[b][1,4]dioxin-5-yl)(morpholino)methanone 2,2,2-trifluoroacetate]: the figures for the 50% inhibitory concentration (IC50) on LRRK2 (G2019S), at human GST-CLK1 and on human GST-DYRK1A were below 100 nM, 301 to 1000 nM and 301 to 1000 nM, respectively.

For the molecule `CC(C)Nc1nc(Nc2ccc(C(=O)N3CCC(N4CCOCC4)CC3)c3c2OCC3)nc2[nH]cc(C#N)c12` [Example 353, 4-(isopropylamino)-2-((4-(4-morpholino-piperidine-1-carbonyl)-2,3-dihydro-benzofuran-7-yl)amino)-7H-pyrrolo[2,3-d]pyrimidine-5-carbonitrile], the 50% inhibitory concentration (IC50) against LRRK2 (G2019S), at human GST-CLK1 and at human GST-DYRK1A was below 100 nM throughout.

With `COc1cc(P2(=O)CCN(C3CC3)CC2)ccc1Nc1nc(NC2CCC2)c2c(C(F)(F)F)c[nH]c2n1` [Example 406], the half-inhibitory concentration (IC50) lay within 101 to 300 nM on LRRK2 (G2019S), 101 to 300 nM against human GST-CLK1 and 301 to 1000 nM on human GST-DYRK1A.

In the case of `CCCNc1nc(Nc2ccc(S(C)(=O)=O)cc2OC)nc2[nH]ccc12` [Example 9, N^2-(2-methoxy-4-(methylsulfonyl)phenyl)-N^4-propyl-7H-pyrrolo[2,3-d]pyrimidine-2,4-diamine 2,2,2-trifluoroacetate], the figures for the half-maximal inhibitory concentration (IC50) at LRRK2 (G2019S), against human GST-CLK1 and at human GST-DYRK1A were below 100 nM, 301 to 1000 nM and 301 to 1000 nM, respectively.

Regarding `CCCCNc1nc(Nc2ccc(P(C)(C)=O)cc2OC)nc2[nH]cc(C(F)(F)F)c12` [Example 393, (4-((4-(butylamino)-5-(trifluoromethyl)-7H-pyrrolo[2,3-d]pyrimidin-2-yl)amino)-3-methoxyphenyl) dimethyl-phosphine oxide], the IC50 at LRRK2 (G2019S) is below 100 nM; at human GST-CLK1 it was 301 to 1000 nM; at human GST-DYRK1A, 301 to 1000 nM.

`COc1cc(P2(=O)CCN(C3CC3)CC2)ccc1Nc1nc(NCC2CCC2)c2c(C(F)(F)F)c[nH]c2n1` [Example 423, 4-(4-((4-((cyclobutyl-methyl)amino)-5-(trifluoromethyl)-7H-pyrrolo[2,3-d]pyrimidin-2-yl)amino)-3-methoxyphenyl)-1-cyclopropyl-1,4-aza-phosphinane 4-oxide]: the half-maximal inhibitory concentration (IC50) against LRRK2 (G2019S) is below 100 nM; at human GST-CLK1 it was 301 to 1000 nM; on human GST-DYRK1A, 301 to 1000 nM.

As for `CCNc1nc(Nc2ccc(S(=O)(=O)N3CCOCC3)cc2OC)nc2[nH]ccc12` [Example 5, N^4-ethyl-N^2-(2-methoxy-4-(morpholinosulfonyl)phenyl)-7H-pyrrolo[2,3-d]pyrimidine-2,4-diamine 2,2,2-trifluoroacetate], the results for the IC50 against LRRK2 (G2019S), against human GST-CLK1 and at human GST-DYRK1A were below 100 nM, 301 to 1000 nM and 301 to 1000 nM, respectively.

`CC[C@H](C)Nc1nc(Nc2ccc(C(=O)N3CCOCC3)c3c2OCC3)nc2[nH]cc(C#N)c12` [Example 356, (S)-4-(sec-butylamino)-2-((4-(morpholine-4-carbonyl)-2,3-dihydro-benzofuran-7-yl)amino)-7H-pyrrolo[2,3-d]pyrimidine-5-carbonitrile]: the IC50 on LRRK2 (G2019S) is below 100 nM; against human GST-CLK1, 301 to 1000 nM; at human GST-DYRK1A, 301 to 1000 nM.
